According to patent publication US12275745B2, “Therapeutic compounds and methods of use” (Genentech, Inc., priority 2021, dated 2025):
pIC50: −log10 of the molar value.

Tests used:
[1] = molecular target: TEAD2 (Homo sapiens, UniProt Q15562); experiment: biochemical;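 also: TR-FRET competition assay with His-tagged TEAD protein and a biotinylated lipid pocket probe, where probe displacement by compound lowers the signal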
Procedure: His-tagged TEAD proteins are pre-incubated with TEAD project compounds for 30 minutes or 4 hours at room temperature. Biotinylated lipid pocket probes are then added to the TEAD/Compound mixture and incubated for 60 minutes at room temperature. The lipid pocket probe competes with the test compound for the TEAD lipid pocket until equilibrium is reached. After 60 minutes, Europium labelled anti-His (Perkin Elmer #AD0110) and XL665 labelled streptavidin (CIS Bio 610SAXAC) are added to the TEAD/test compound/lipid pocket mixture and incubated for 30 minutes or 4 hours. TR-FRET values are then measured using an EnVision multi-label plate reader (Perkin Elmer Cat #2104-001 0A.) If the lipid pocket probe binds to TEAD as expected, a TR-FRET signal results from the proximity of anti-His Eu and XL665. If a TEAD lipid pocket binder such as binds and displaces the lipid pocket probe, the disruption of the TEAD:probe interaction results in a decrease in TR-FRET signal. The potency of compounds as TEAD lipid pocket binders is determined by IC50 value generated using a non-linear 4 parameter curve fit.

[2] = molecular target: TEAD1 (Homo sapiens, UniProt P28347); experiment: TR-FRET (Lipid HTRF) TEAD lipid pocket probe displacement assay, TEAD1; format: binding; conditions: His-tagged TEAD1, biotinylated lipid pocket probe, 4 hours
[3] = molecular target: TEAD3 (Homo sapiens, UniProt Q99594); experiment: TR-FRET (Lipid HTRF) TEAD lipid pocket probe displacement assay, TEAD3; format: binding; conditions: His-tagged TEAD3, biotinylated lipid pocket probe, 4 hours
[4] = molecular target: TEAD4 (Homo sapiens, UniProt Q15561); experiment: TR-FRET (Lipid HTRF) TEAD lipid pocket probe displacement assay, TEAD4; format: binding; conditions: His-tagged TEAD4, biotinylated lipid pocket probe, 4 hours
Sequence of TEAD4 (Q15561 whole entry, species assumed): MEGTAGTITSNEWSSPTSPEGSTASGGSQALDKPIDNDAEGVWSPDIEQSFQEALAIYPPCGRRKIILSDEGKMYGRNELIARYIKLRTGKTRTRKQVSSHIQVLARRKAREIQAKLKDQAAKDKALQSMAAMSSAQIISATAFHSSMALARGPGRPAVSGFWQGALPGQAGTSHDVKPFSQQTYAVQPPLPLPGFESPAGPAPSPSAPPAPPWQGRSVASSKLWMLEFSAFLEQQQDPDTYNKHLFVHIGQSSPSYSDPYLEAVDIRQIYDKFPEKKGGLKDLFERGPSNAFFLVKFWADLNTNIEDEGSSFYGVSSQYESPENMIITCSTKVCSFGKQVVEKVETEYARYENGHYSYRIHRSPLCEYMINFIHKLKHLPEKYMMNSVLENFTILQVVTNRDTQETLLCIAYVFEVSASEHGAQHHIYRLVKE

Sequence of TEAD2 (Q15562 whole entry, species assumed): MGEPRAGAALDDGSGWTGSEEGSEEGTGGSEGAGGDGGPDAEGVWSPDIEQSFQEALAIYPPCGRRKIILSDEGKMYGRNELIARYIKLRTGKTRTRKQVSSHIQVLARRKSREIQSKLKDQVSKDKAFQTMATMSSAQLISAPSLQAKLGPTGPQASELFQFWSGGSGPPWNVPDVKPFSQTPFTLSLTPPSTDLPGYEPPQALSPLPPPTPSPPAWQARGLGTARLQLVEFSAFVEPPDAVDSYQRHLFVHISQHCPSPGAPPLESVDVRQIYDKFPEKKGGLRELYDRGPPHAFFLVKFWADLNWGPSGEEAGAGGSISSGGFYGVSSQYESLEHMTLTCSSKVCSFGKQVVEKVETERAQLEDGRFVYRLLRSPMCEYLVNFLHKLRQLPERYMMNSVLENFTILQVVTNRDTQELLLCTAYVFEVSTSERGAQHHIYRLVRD
Sequence of TEAD3 (Q99594 whole entry, species assumed): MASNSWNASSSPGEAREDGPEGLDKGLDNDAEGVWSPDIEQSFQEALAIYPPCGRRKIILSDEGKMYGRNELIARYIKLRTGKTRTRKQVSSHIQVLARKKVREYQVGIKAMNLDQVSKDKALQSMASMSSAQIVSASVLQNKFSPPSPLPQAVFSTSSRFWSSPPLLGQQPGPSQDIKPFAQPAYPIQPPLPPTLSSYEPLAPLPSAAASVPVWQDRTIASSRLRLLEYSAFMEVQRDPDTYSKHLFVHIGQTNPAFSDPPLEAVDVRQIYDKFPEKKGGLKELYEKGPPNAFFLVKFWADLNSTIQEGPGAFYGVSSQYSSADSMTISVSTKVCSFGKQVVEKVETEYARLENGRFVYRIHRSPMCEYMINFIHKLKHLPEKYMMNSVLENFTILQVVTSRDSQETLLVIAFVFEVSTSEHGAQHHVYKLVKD
Sequence of TEAD1 (P28347 whole entry, species assumed): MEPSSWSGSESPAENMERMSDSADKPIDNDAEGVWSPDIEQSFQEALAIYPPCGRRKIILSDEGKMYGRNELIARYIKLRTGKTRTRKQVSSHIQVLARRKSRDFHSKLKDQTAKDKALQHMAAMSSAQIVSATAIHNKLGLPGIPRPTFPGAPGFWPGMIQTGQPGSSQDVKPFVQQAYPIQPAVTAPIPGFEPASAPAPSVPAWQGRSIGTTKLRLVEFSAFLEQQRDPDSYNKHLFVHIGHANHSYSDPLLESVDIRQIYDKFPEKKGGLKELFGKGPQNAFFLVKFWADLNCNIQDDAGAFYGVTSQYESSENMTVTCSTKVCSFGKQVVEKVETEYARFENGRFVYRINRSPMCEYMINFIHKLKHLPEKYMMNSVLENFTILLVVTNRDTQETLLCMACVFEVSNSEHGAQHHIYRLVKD

SMILES | pIC50 [1] | pIC50 [2] | pIC50 [3] | pIC50 [4]
C=CC(=O)N(C)Cc1cc(-c2ccc(OC(F)(F)F)cc2)c2c(c1[C@H](O)CO)CCO2 (single isomer, unassigned) [Compound 55] | 8.36 | 7.70 | 6.62 | 8.14
C=CC(=O)N(C)Cc1cc(-c2ccc(OC(F)(F)F)cc2)c2c(c1[C@@H](O)CO)CCO2 (single isomer, unassigned) [Compound 56] | 7.46 | 7.32 | 7.00 | 7.89
C=CC(=O)NCc1cc(-c2ccc(OC(F)(F)F)cc2)c2nccnc2c1[C@@H](C)O (single isomer, unassigned) [Compound 82] | 7.82 | 7.16 | 5.74 | 6.62
C=CC(=O)NCc1cc(-c2ccc(OC(F)(F)F)cc2)c2nccnc2c1[C@H](C)O (single isomer, unassigned) [Compound 83] | 8.22 | 7.36 | 6.72 | 7.02
C=CC(=O)NCc1cc(-c2ccc(OC(F)(F)F)cc2)c2c(c1[C@H](O)[C@H](C)O)CCO2 (single isomer, unassigned) [Compound 89] | 7.47 | 6.80 | 5.32 | 6.82
C=CC(=O)NCc1cc(-c2ccc(OC(F)(F)F)cc2)c2c(c1[C@@H](O)[C@@H](C)O)CCO2 (single isomer, unassigned) [Compound 90] | 7.54 | 6.77 | 6.40 | 7.20
C=CC(=O)NCc1cc(-c2ccc(OC(F)(F)F)cc2)c2c(c1[C@H](O)CC#N)CCO2 (single isomer, unassigned) [Compound 91] | 7.47 | 6.85 | 4.96 | 7.20
C=CC(=O)NCc1cc(-c2ccc(OC(F)(F)F)cc2)c2c(c1[C@@H](O)CC#N)CCO2 (single isomer, unassigned) [Compound 92] | 7.80 | 6.12 | 5.80 | 6.47
C=CC(=O)NCc1cc(-c2ccc(OC(F)(F)F)cc2)c2ncoc2c1[C@H](O)CO (single isomer, unassigned) [Compound 105] | 7.52 | 6.89 | 7.13 | 7.05
C=CC(=O)NCc1cc(-c2ccc(OC(F)(F)F)cc2)c2ncoc2c1[C@@H](O)CO (single isomer, unassigned) [Compound 106] | 7.62 | 6.74 | 6.00 | 6.74
C=CC(=O)N(C)Cc1cc(-c2ccc(OC(F)(F)F)cc2)c2ncoc2c1[C@H](O)CO (single isomer, unassigned) [Compound 107] | 7.70 | 7.00 | 6.11 | 7.44
C=CC(=O)N(C)Cc1cc(-c2ccc(OC(F)(F)F)cc2)c2ncoc2c1[C@@H](O)CO (single isomer, unassigned) [Compound 108] | 7.12 | 6.89 | 7.33 | 7.62
C=CC(=O)NCc1cc(-c2ccc(C(F)(F)F)cc2)c2ncoc2c1[C@H](O)CO (single isomer, unassigned) [Compound 109] | 7.24 | 6.82 | 7.15 | 6.77
C=CC(=O)NCc1cc(-c2ccc(C(F)(F)F)cc2)c2ncoc2c1[C@@H](O)CO (single isomer, unassigned) [Compound 110] | 7.33 | 6.85 | 6.01 | 6.59
C=CC(=O)NCc1cc(-c2ccc(OC(F)(F)F)cc2)c2ncn(C)c2c1[C@@H](C)O (single isomer, unassigned) [Compound 138] | 8.00 | 7.22 | 5.44 | 7.04
C=CC(=O)NCc1cc(-c2ccc(OC(F)(F)F)cc2)c2ncn(C)c2c1[C@H](C)O (single isomer, unassigned) [Compound 139] | 8.17 | 6.80 | 6.42 | 7.00
C=CC(=O)NCc1cc(Oc2ccc(C(F)(F)F)cc2)c2ncccc2c1[C@H](O)CO (single isomer, unassigned) [Compound 147] | 7.72 | 6.96 | 6.21 | 6.05

SMILES | pIC50 [1] | pIC50 [2] | pIC50 [3] | pIC50 [4]
C=CC(=O)NCc1cc(Oc2ccc(C(F)(F)F)cc2)c2ncccc2c1[C@@H](O)CO (single isomer, unassigned) [Compound 148] | 8.06 | 7.44 | 6.33 | 6.27
C=CC(=O)NCc1cc(-c2ccc(S(F)(F)(F)(F)F)cc2)c2c(c1[C@H](O)CO)CCO2 (stereo in doubt) [Compound 96, N-[[7-[4-(Pentafluoro-6-sulfanyl)phenyl]-4-[rac-(1R)-l,2-dihydroxyethyl]-2,3-dihydrobenzofuran-5-yl]methyl]prop-2-enamide] | 7.48 | 7.37 | 7.14 | 7.64
C=CC(=O)NCc1cc(-c2ccc(S(F)(F)(F)(F)F)cc2)c2c(c1[C@@H](O)CO)CCO2 (stereo in doubt) [Compound 97, N-[[7-[4-(pentafluoro-6-sulfanyl)phenyl]-4-[rac-(1S)-1,2-dihydroxyethyl]-2,3-dihydrobenzofuran-5-yl]methyl]prop-2-enamide] | 7.72 | 7.57 | 6.23 | 7.74
C=CC(=O)NCc1cc(-c2ccc(OC(F)(F)F)cc2)c2nccn2c1CO [Compound 5, N-((5-(hydroxymethyl)-8-(4-(trifluoromethoxy)phenyl)imidazo[1,2-a]pyridin-6-yl)methyl)acrylamide] | 6.64 | 6.90 | 6.54 | 6.57
C=CC(=O)NCc1nc(-c2ccc(OC(F)(F)F)cc2)c2ccccc2n1 [Compound 7, N-((4-(4-(trifluoromethoxy)phenyl)quinazolin-2-yl)methyl)acrylamide] | 6.19 | 7.74 | 6.64 | 7.40
C=CC(=O)NCc1nc(-c2ccc(OC(F)(F)F)cc2)c2occc2n1 [Compound 10, N-[[4-[4-(trifluoromethoxy)phenyl]furo[3,2-d]pyrimidin-2-yl]methyl]prop-2-enamide] | 5.89 | 6.85 | 6.39 | 7.03
C=CC(=O)N(C)Cc1nc(-c2ccc(OC(F)(F)F)cc2)c2ncsc2n1 [Compound 11, N-methyl-N-[[7-[4-(trifluoromethoxy)phenyl]thiazolo[5,4-d]pyrimidin-5-yl]methyl]prop-2-enamide] | 7.00 | 7.11 | 7.13 | 8.09
C=CC(=O)NCc1nc2c(c(-c3ccc(OC(F)(F)F)cc3)n1)OCC2 [Compound 13, N-[[4-[4-(trifluoromethoxy)phenyl]-6,7-dihydrofuro[3,2-d]pyrimidin-2-yl]methyl]prop-2-enamide] | 6.49 | 7.07 | 6.77 | 7.46
C=CC(=O)NCc1cc(-c2ccc(OC(F)(F)F)cc2)c2ncccc2c1C#N [Compound 16, N-[[5-cyano-8-[4-(trifluoromethoxy)phenyl]-6-quinolyl]methyl]prop-2-enamide] | 7.29 | 7.62 | 7.43 | 7.43
C=CC(=O)NCc1cc(-c2ccc(OC(F)(F)F)cc2)c2c(c1-n1ccnc1)CCO2 [Compound 23, N-((4-(1H-Imidazol-1-yl)-7-(4-(trifluoromethoxy)phenyl)-2,3-dihydrobenzofuran-5-yl)methyl)acrylamide] | 6.43 | 6.16 | 5.41 | 6.80
C=CC(=O)NCc1cc(-c2ccc(S(F)(F)(F)(F)F)cc2)c2c(c1CO)CCO2 [Compound 24, N-((4-(Hydroxymethyl)-7-(4-(pentafluoro-16-sulfaneyl)phenyl)-2,3-dihydrobenzofuran-5-yl)methyl)acrylamide] | 6.92 | 7.49 | 7.41 | 7.57
C=CC(=O)NCc1cc(-c2ccc(OC(F)(F)F)cc2)c2nccn2c1CC [Compound 26, N-((5-ethyl-8-(4-(trifluoromethoxy)phenyl)imidazo[1,2-a]pyridin-6-yl)methyl)acrylamide] | 7.21 | 6.85 | 6.29 | 6.74
C=CC(=O)NCc1cc(-c2ccc(OC(F)(F)F)cc2)c2ncn(C)c2c1Cc1cn[nH]c1 [Compound 34, N-[[3-methyl-4-(1H-pyrazol-4-ylmethyl)-7-[4-(trifluoromethoxy)phenyl]benzimidazol-5-yl]methyl]prop-2-enamide] | 7.23 | 6.72 | 5.44 | 7.21
C=CC(=O)NCc1nc(-c2ccc(OC(F)(F)F)cc2)c2nc(C)sc2n1 [Compound 35, N-[[2-methyl-7-[4-(trifluoromethoxy)phenyl]thiazolo[5,4-d]pyrimidin-5-yl]methyl]prop-2-enamide] | 6.14 | 7.96 | 6.10 | 6.48
C=CC(=O)N(C)Cc1cc(-c2ccc(OC(F)(F)F)cc2)c2nccn2c1CO [Compound 36, N-[[5-(hydroxymethyl)-8-[4-(trifluoromethoxy)phenyl]imidazo[1,2-a]pyridin-6-yl]methyl]-N-methyl-prop-2-enamide] | 7.00 | 7.36 | 7.05 | 7.43
C=CC(=O)NCc1cc(-c2ccc(OC(F)(F)F)cc2)c2nccn2c1 [Compound 37, N-[[8-[4-(trifluoromethoxy)phenyl]imidazo[1,2-a]pyridin-6-yl]methyl]prop-2-enamide] | 6.02 | 7.00 | 6.64 | 7.09
